In one experiment the target is T1, TBK1 (Homo sapiens, UniProt Q9UHD2).
T1 sequence (Q9UHD2 1-729): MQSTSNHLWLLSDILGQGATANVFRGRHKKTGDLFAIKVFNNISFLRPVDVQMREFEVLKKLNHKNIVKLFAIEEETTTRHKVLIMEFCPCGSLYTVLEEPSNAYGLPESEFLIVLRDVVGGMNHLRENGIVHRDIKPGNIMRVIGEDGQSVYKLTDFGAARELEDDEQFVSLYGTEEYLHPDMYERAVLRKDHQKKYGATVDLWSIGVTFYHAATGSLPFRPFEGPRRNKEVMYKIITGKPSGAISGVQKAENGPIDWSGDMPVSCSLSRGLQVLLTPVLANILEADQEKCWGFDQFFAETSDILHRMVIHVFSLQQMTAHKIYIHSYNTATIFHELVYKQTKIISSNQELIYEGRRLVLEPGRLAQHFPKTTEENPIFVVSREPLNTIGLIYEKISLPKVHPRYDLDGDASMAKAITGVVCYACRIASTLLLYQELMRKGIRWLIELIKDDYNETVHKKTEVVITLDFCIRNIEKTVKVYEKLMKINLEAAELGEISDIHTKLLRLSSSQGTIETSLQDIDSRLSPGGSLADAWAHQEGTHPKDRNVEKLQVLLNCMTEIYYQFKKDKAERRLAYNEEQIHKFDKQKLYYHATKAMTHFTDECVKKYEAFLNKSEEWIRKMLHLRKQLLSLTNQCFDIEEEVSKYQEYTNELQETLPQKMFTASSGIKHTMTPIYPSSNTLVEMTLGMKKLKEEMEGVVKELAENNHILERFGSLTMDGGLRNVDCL
Kind of experiment: TBK biochemical assay. The settings on record: 10 point 1:4 dose response, 30 uM top concentration, 90 min at 25° C., LabChip EZ Reader II; read-out: TBK1_IC50. The method, boiled down: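 Read-out was a Caliper LabChip mobility-shift assay, run after a 90-min, 25 °C reaction of TBK1 with substrate and compounds, quenched with stop buffer. Control wells received staurosporine at 10 uM final.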

Another experiment has as its target T2, IKKε (Homo sapiens, UniProt Q14164).
T2 sequence (Q14164 1-716): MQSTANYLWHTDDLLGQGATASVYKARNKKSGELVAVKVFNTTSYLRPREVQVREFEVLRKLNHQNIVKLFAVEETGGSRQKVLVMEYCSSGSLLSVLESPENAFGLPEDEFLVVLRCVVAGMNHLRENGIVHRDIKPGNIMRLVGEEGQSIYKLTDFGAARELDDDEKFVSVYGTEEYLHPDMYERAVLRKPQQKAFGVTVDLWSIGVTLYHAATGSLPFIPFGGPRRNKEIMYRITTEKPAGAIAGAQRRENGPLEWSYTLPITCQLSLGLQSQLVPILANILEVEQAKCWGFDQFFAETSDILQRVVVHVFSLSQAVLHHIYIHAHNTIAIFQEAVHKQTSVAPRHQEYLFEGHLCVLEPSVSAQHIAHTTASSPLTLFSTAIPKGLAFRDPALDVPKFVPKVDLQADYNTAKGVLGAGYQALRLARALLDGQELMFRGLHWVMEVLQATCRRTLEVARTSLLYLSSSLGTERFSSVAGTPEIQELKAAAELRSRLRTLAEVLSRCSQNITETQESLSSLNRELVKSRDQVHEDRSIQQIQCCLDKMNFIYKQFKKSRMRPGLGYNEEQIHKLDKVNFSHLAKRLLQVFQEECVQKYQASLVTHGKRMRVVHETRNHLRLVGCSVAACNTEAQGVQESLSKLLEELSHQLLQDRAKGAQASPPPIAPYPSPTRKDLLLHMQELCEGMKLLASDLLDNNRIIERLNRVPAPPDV
As to the kind of experiment: IKKε biochemical assay. The settings on record: 10 point 1:4 dose response, 30 uM top concentration, 90 min at 25° C., LabChip EZ Reader II; read-out: IKKε_IC50. The method, boiled down: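 Mobility-shift LabChip read-out followed a 90 min, 25° C. reaction of IKKε with substrate and test compound, with DMSO held at 1% final. Reactions were ended with stop buffer. Wells with 10 uM final staurosporine defined complete inhibition, and DMSO-only wells the uninhibited level.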

The results in this text go back to patent publication US20230019491A1, “PYRIMIDINE TBK/IKKe INHIBITOR COMPOUNDS AND USES THEREOF” (Merck Patent GmbH, priority 2017, published 2023).

Where a name gives a salt, the structure may show the parent alone. A value given as a limit tells only on which side of the number the result lay.

On to `COc1cc(Nc2nccc(-c3ccc(OC4CCOCC4)c(C#N)c3)n2)ncc1C(=O)N(C)C` [Example 49, 6-([4-[3-cyano-4-(oxan-4-yloxy)phenyl]pyrimidin-2-yl]amino)-4-methoxy-N,N-dimethylpyridine-3-carboxamide], for which the IC50 at TBK1 and at IKKε was 0.1 to 1 µM in each case.
As for `COc1cc(Nc2nccc(-c3ccc(OC4CCOCC4)c(C#N)c3)n2)cnc1C(=O)N(C)C` [Example 50, 5-([4-[3-cyano-4-(oxan-4-yloxy)phenyl]pyrimidin-2-yl]amino)-3-methoxy-N,N-dimethylpyridine-2-carboxamide], the IC50 on TBK1 and at IKKε was less than 0.1 µM in each case.
As to `COc1cc(Nc2nccc(-c3cc(C#N)c(OC4CCOCC4)cn3)n2)ncc1C(=O)N(C)C` [Example 51, 6-([4-[4-cyano-5-(oxan-4-yloxy)pyridin-2-yl]pyrimidin-2-yl]amino)-4-methoxy-N,N-dimethylpyridine-3-carboxamide], the IC50 on TBK1 and at IKKε was more than 5 µM in each case.
Take `COc1cc(Nc2nccc(-c3cc(C#N)c(OC4CCOCC4)cn3)n2)cnc1C(=O)N(C)C` [Example 52, 5-([4-[4-cyano-5-(oxan-4-yloxy)pyridin-2-yl]pyrimidin-2-yl]amino)-3-methoxy-N,N-dimethylpyridine-2-carboxamide]: the IC50 on TBK1 and on IKKε was 1 to 5 µM in each case.
In the case of `COc1cc(Nc2nccc(-c3ccc(OC4CCOCC4)c(C#N)c3)n2)ncc1N1CCN(C)CC1` [Example 53, 5-(2-[[4-methoxy-5-(4-methylpiperazin-1-yl)pyridin-2-yl]amino]pyrimidin-4-yl)-2-(oxan-4-yloxy)benzonitrile hydrochloride], the IC50 on TBK1 and on IKKε was 0.1 to 1 µM throughout.
Consider `COc1cc(Nc2nccc(-c3ccc(OC4CCOCC4)c(C#N)c3)n2)cnc1N1CCN(C)CC1` [Example 54, 5-(2-[[5-methoxy-6-(4-methylpiperazin-1-yl)pyridin-3-yl]amino]pyrimidin-4-yl)-2-(oxan-4-yloxy)benzonitrile], for which the IC50 at TBK1 and at IKKε was less than 0.1 µM each time.
Regarding `COc1cc(Nc2nccc(-c3cc(C#N)c(OC4CCOCC4)cn3)n2)ncc1N1CCN(C)CC1` [Example 55, 2-(2-[[4-methoxy-5-(4-methylpiperazin-1-yl)pyridin-2-yl]amino]pyrimidin-4-yl)-5-(oxan-4-yloxy)pyridine-4-carbonitrile hydrochloride], the IC50 on TBK1 and at IKKε was more than 5 µM each time.
On to `COc1cc(Nc2nccc(-c3cc(C#N)c(OC4CCOCC4)cn3)n2)cnc1N1CCN(C)CC1` [Example 56, 2-(2-[[5-methoxy-6-(4-methylpiperazin-1-yl)pyridin-3-yl]amino]pyrimidin-4-yl)-5-(oxan-4-yloxy)pyridine-4-carbonitrile], for which the IC50 at TBK1 and on IKKε was 0.1 to 1 µM each time.
In the case of `COc1cc(Nc2nccc(-c3ccc(OC4CCOCC4)c(C#N)c3)n2)cnc1C1CCN(C)CC1` [Example 57, 5-(2-[[5-methoxy-6-(1-methylpiperidin-4-yl)pyridin-3-yl]amino]pyrimidin-4-yl)-2-(oxan-4-yloxy)benzonitrile], the IC50 at TBK1 and on IKKε was less than 0.1 µM throughout.
As to `COc1cc(C(=O)N(C)C)cnc1Nc1nccc(-c2ccc(OC3CCOCC3)c(C#N)c2)n1` [Example 58, 6-([4-[3-cyano-4-(oxan-4-yloxy)phenyl]pyrimidin-2-yl]amino)-5-methoxy-N,N-dimethylpyridine-3-carboxamide], the results for the IC50 on TBK1 and on IKKε were 1 to 5 µM and more than 5 µM, respectively.
For `COc1cc(Nc2nccc(-c3ccc(OC4CCOCC4)c(C#N)c3)n2)ncc1C1CCN(C)CC1` [Example 59, 5-(2-[[4-methoxy-5-(1-methylpiperidin-4-yl)pyridin-2-yl]amino]pyrimidin-4-yl)-2-(oxan-4-yloxy)benzonitrile hydrochloride], in that order: 0.1 to 1 µM and less than 0.1 µM.
The corresponding values for `COc1cc(C(=O)N(C)C)cnc1Nc1nccc(-c2ccc(NC3CCOCC3)c(C#N)c2)n1` [Example 60, 6-[(4-[3-cyano-4-[(oxan-4-yl)amino]phenyl]pyrimidin-2-yl)amino]-5-methoxy-N,N-dimethylpyridine-3-carboxamide] are more than 5 µM and more than 5 µM.
On to `COc1cc(C(=O)N(C)C)ncc1Nc1nccc(-c2ccc(NC3CCOCC3)c(C#N)c2)n1` [Example 61, 5-[(4-[3-cyano-4-[(oxan-4-yl)amino]phenyl]pyrimidin-2-yl)amino]-4-methoxy-N,N-dimethylpyridine-2-carboxamide], for which the IC50 at TBK1 and at IKKε was 0.1 to 1 µM in each case.
As to `COc1nc(C(=O)N(C)C)ccc1Nc1nccc(-c2ccc(NC3CCOCC3)c(C#N)c2)n1` [Example 62, 5-[(4-[3-cyano-4-[(oxan-4-yl)amino]phenyl]pyrimidin-2-yl)amino]-6-methoxy-N,N-dimethylpyridine-2-carboxamide], the results for the IC50 at TBK1 and on IKKε were less than 0.1 µM and 0.1 to 1 µM, respectively.
For `COc1nc(Nc2nccc(-c3ccc(NC4CCOCC4)c(C#N)c3)n2)ccc1C(=O)N(C)C` [Example 63, 6-[(4-[3-cyano-4-[(oxan-4-yl)amino]phenyl]pyrimidin-2-yl)amino]-2-methoxy-N,N-dimethylpyridine-3-carboxamide], in that order: less than 0.1 µM and less than 0.1 µM.
Turning to `COc1nc(Nc2nccc(-c3ccc(NC4CCOCC4)c(C#N)n3)n2)ccc1C(=O)N(C)C` [Example 64, 6-[(4-[6-cyano-5-[(oxan-4-yl)amino]pyridin-2-yl]pyrimidin-2-yl)amino]-2-methoxy-N,N-dimethylpyridine-3-carboxamide], the IC50 on TBK1 and at IKKε was less than 0.1 µM throughout.
With `CN1CCN(c2ccc(Nc3nccc(-c4ccc(OC5CCOCC5)c(C#N)c4)n3)cn2)CC1` [Example 66, 5-{2-[6-(4-Methyl-piperazin-1-yl)-pyridin-3-ylamino]-pyrimidin-4-yl}-2-(tetrahydro-pyran-4-yloxy)-benzonitrile], the IC50 on TBK1 and at IKKε was less than 0.1 µM in each case.
Regarding `COc1nc(Nc2ncc(F)c(-c3ccc(OC4CCOCC4)c(C#N)c3)n2)ccc1N1CCN(C)CC1` [Example 67, 5-{5-Fluoro-2-[6-methoxy-5-(4-methyl-piperazin-1-yl)-pyridin-2-ylamino]-pyrimidin-4-yl}-2-(tetrahydro-pyran-4-yloxy)-benzonitrile], the IC50 on TBK1 and on IKKε was less than 0.1 µM in each case.
For the molecule `COc1nc(Nc2nccc(-c3ccc(OC4CCOC4)c(C#N)n3)n2)ccc1C(=O)N(C)C` (stereo not drawn) [Example 68, 6-([4-[6-cyano-5-(oxolan-3-yloxy)pyridin-2-yl]pyrimidin-2-yl]amino)-2-methoxy-N,N-dimethylpyridine-3-carboxamide], the IC50 on TBK1 and at IKKε was less than 0.1 µM throughout.
Regarding `COc1nc(Nc2nccc(-c3ccc(OC4CN(C)C4)c(C#N)c3)n2)ccc1C(=O)N(C)C` [Example 69, 6-[(4-[3-cyano-4-[(1-methylazetidin-3-yl)oxy]phenyl]pyrimidin-2-yl)amino]-2-methoxy-N,N-dimethylpyridine-3-carboxamide], the IC50 on TBK1 and at IKKε was 0.1 to 1 µM in each case.
Consider `COc1nc(Nc2nccc(-c3ccc(OC4CCN(C)C4)c(C#N)c3)n2)ccc1C(=O)N(C)C` (stereo not drawn) [Example 70, 6-[(4-[3-cyano-4-[(1-methylpyrrolidin-3-yl)oxy]phenyl]pyrimidin-2-yl)amino]-2-methoxy-N,N-dimethylpyridine-3-carboxamide hydrochloride], for which the IC50 on TBK1 and at IKKε was 0.1 to 1 µM in each case.
